Results as given in EP4578855A1, “PROLYL HYDROXYLASE INHIBITOR AND USE THEREOF” (Suzhong Pharmaceutical Group Co., Ltd., priority 2022, dated 2024).
“And” between values parts separate entries of the source, which are not always exact repeats. Equal values may be shown once.

Assays:
[1] = test system: human hepatocarcinoma cell line Hep3B; assay: In-vitro erythropoietin (EPO)-inducing activity experiment (EPO ELISA, OD450); type: cell-based; details: Homo sapiens, Hep3B, 24 h, Hep3B cells, incubated 24 hours at 37°C
Method: In-vitro erythropoietin (EPO)-inducing activities of the compounds in Embodiments 10 to 12 were evaluated by using a human hepatocarcinoma cell line Hep3B (ATCC). Hep3B cells were cultured in an EMEM medium (Eagle's Minimum Essential Medium) at 37°C in the presence of 10% fetal bovine serum (FBS). Experimental steps were as follows: • (1) Cell preparation: the cells were inoculated in a 96-well plate, and cell plating was carried out according to an amount of 100 µL per well based on 2*10~4 per well. • (2) Preparation of compound concentration gradient: 100 µM, 20 µM, 2-parallel well detection. A solution with 200 times final concentration was prepared in a 96-well plate, the compound was diluted 200/3 times by using a cell culture medium, and then 50 µL of the compound was sucked for drug administration to the cells. 50 µL of DMSO-containing culture solution was added into a negative control well to make a final concentration contain 5 ‰ DMSO, and 50 µL of positive compound with the highest concentration was added into a positive control well to incubate the cells at 37°C for 24 hours. • (3) The reaction plate was washed twice with 1X Wash Buffer according to about 400 µL per well. • (4) 100 µL of diluted standard (comprising a standard blank control) was added into an appropriate well. • (5) 50 µL of sample and 50 µL of Sample Diluent were added into a sample well. • (6) 50 µL of 1X Biotin Conjugated Antibody were added into all wells to incubate the cells at room temperature for 1 hour. • (7) The reaction plate was washed with 1X Wash Buffer for 6 times according to about 400 µL per well. • (8) 100 µL of 1X Streptavidin-HRP was added in to each well to incubate the cells at room temperature for 15 minutes. • (9) The reaction plate was washed with 1X Wash Buffer for 6 times according to about 400 µL per well. • (10) 100 µL of TMB Substrate Solution was added into each well to incubate the cells at room temperature for 10 minutes. • (11) 100 µL of Stop Solution was added into each well. • (12) OD450 was read by EnSight.
The EPO-inducing activities of the compounds were expressed as the concentration for 50% of maximal effect (EC50).

[2] = Subacute toxicity test, 14 consecutive days; type: in vivo; details: SD rats, 10 mg/kg once a day for 14 consecutive days, in words
Description: A proper amount of the compound in Embodiment 13 and a proper amount of the compound in Embodiment 14 were weighed by a balance and respectively placed into proper glass bottles, then DMSO, Solutol HS-15 and 0.9% physiological saline (in a ratio of v: v: v = 5%: 10%: 85%) were sequentially added into the glass bottles, and vortexed and stirred, and a drug dissolution condition was continuously concerned in the stirring process until the compounds were completely dissolved/suspended. Finally, drug solutions of the compound in Embodiment 13 and the compound in Embodiment 14 with a concentration of 0.67 mg/mL were prepared for current use.
An animal room was well ventilated, equipped with an air-conditioner, kept at a temperature of 20°C and 25°C and a humidity of 40% to 70%, and in light and dark conditions for 12 hours respectively, and the animals could eat and drink freely. SD rats with good physical signs could be selected for this experiment after being adaptively fed for at least 3 days before administration. Table 23 Source and number of experimental animals
Any operation on the experimental animals in this experiment met the requirements of the "Regulations for the Administration of Affairs Concerning Experimental Animals" issued by the Ministry of Science and Technology of the People's Republic of China. In this experiment, a solvent control group, an administration group of compound in Embodiment 13 and an administration group of compound in Embodiment 14 were set up. Administration dosages of the administration group of compound in Embodiment 13 and the administration group of compound in Embodiment 14 were (10 mg/kg) once a day for 14 consecutive days, while the same amount of blank solvent was given to the blank control group, and administration volumes were all 15 mL/kg. After each administration, symptoms and degrees of toxic reaction of the animals were observed. Recovery observation was carried out for 7 days after the last administration. […]
During the experiment, experimenters and veterinarians should observe physical signs and health conditions of the experimental animals continuously. Any abnormal manifestations of the animals, such as pain, depression and decreased activity should be recorded in original records of the experiment. […]
During the experiment, all animals were observed beside cages at least twice a day, and observed continuously for 2 hours after the drug administration. During the drug administration, if the animals had serious side effects or died, observation results should be recorded in a corresponding form. […]
The animals should be weighed before daily drug administration for 14 consecutive days, and the weights were recorded in a corresponding form. Food intakes of the experimental animals were detected during the experiment. […]

[3] = test system: EPO (erythropoietin); assay: Pharmacological evaluation: influence of continuous administration on EPO level; type: in vivo, SD rats
Method: This experiment was intended to evaluate an influence of continuous administration of the compounds prepared in Embodiments 12, 13 and 14 on EPO (erythropoietin) in SD rats.
• Line: SD (Sprague Dawley) • Weeks of age and weight: 8 weeks, weight 200 g to 220 g • Sex: male • Animal source: Beijing Vital River Laboratory Animal Technology Co., Ltd.
• Positive drug: Enarodustat • Description: commercialized drugs approved for marketing in Japan • Specification and content: 2 mg JTZ-951(Enarodustat), 140 capsules/box
After a week of adaptive feeding, SD rats were randomly divided into 3 groups, 6 rats in each group, which were namely a blank group, a positive drug group (Enarodustat) and a group of compound in Embodiment 12. An Enarodustat tablet was crushed by a mortar, then quantitatively added with 0.5% methyl cellulose, and magnetically stirred and mixed evenly; and the compound prepared in Embodiment 12 was weighed, then quantitatively added with 0.5% methyl cellulose, and magnetically stirred and mixed evenly. […] The drug was given once a day for 14 consecutive days, and blood was taken to measure an EPO level 4 hours after the drug was given on the 14th day.

O=C(O)CNC(=O)c1c(O)cc(C2CCc3ccccc3C2)n2ncnc12 (single isomer, unassigned) [Compound in Embodiment 13, [(7-hydroxy-5-(1,2,3,4-tetrahydronaphthalene-2-yl)-[1,2,4]triazolo[1,5-a]pyridine-8-carbonyl)amino]acetic acid]
EC50 [1]: 5.05 µM
toxicities ([2]; compared with Enarodustat): lower than that of Enarodustat
gastrointestinal findings [2]: no obvious gastrointestinal necrosis, and bleeding spots or flatulence in a black stomach part
EPO levels in serum of the rats ([3]; after 14 days of administration, in words): increased significantly
EPO levels in plasma of the rats ([3]; after administration, compared with the group of positive drug Enarodustat, in words): significantly higher
EPO level after 14 days of administration ([3]; individual rats 1-6, 0.3 mg/mL, 10 mL/kg, once a day for 14 consecutive days, blood 4 hours after the drug on the 14th day, 2904.6 pg/mL was an upper limit of measurement): ≥ 2904.6 pg/mL (3×) and 2697.4 pg/mL and 2658.5 pg/mL and 2772.1 pg/mL
EPO level after 14 days of administration, Mean ([3]; mean of 6 rats, 0.3 mg/mL, 10 mL/kg, once a day for 14 consecutive days, blood 4 hours after the drug on the 14th day, 2904.6 pg/mL was an upper limit of measurement): 2807.0 pg/mL
